# Results from patent US11400072B2, “Methods for the treatment of nonalcoholic fatty liver disease and/or lipodystrophy” (Coherus Biosciences, Inc., priority 2015, dated 2022).
# Tested on: obese patients with NASH
# Assay: 48 week double blind, placebo controlled, randomized, parallel group study of INT131 on hepatic histology of obese patients with NASH
# Type: in vivo, human
# Details: subjects receiving either 1.25 or 2 mg of INT131 once per day
# Description: A 48 week double blind, placebo controlled, randomized, parallel group study will be conducted to evaluate the effect of INT131 on hepatic histology of obese patients with NASH. Specifically, at least 225 subjects are chosen that fit the following criteria: (1) age 18 to 75 years old; (2) body mass index (BMI) greater than 25 kg/m^2 and less than 40 kg/m^2; (3) NAFLD fibrosis score greater than or equal to 1.0 and less than 4.0; (4) average daily alcohol consumption of 10 g/day or less; (5) NAFLD activity score (“NAS”) of 3 or greater; (6) histologically proven steatohepatitis on a diagnostic liver biopsy performed within 6 months of randomization, confirmed central laboratory reading of slides (steatosis >5% lobular inflammation, any amount of ballooning); (7) women who meet the following criteria: women of childbearing potential with a negative urine pregnancy test at Screening who agree to use 1 or more approved methods of birth control during the study. Approved methods of birth control are: hormonal contraception, intrauterine device, diaphragm plus spermicide, female condom plus spermicide. […]
# [1] = week 0 compared to week 48, statistically significant versus placebo group
compound,measurement,setting,value
"O=S(=O)(Nc1cc(Cl)c(Oc2cnc3ccccc3c2)c(Cl)c1)c1ccc(Cl)cc1Cl [INT131, 2,4-Dichloro-N-[3,5-dichloro-4-(3-quinolinyloxy)phenyl]benzenesulfonamide]",liver function test(s),,improvement
same,most if not all other metabolic parameters outlined above,,improvement
same,NAS (NAFLD activity score),[1],reduction
same,ballooning grade,[1],reduction
same,fibrosis stage,[1],reduction
same,portal and lobular inflammation grade,[1],reduction
same,steatosis grade,[1],reduction
